Measurements taken from the supplement of paper PMC10627819.

How the values were obtained:
S. aureus DSM 20231 [1] = experiment: fitness (endpoint OD595 vs no drug) (fraction); higher = more growth
In short: (§1)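 At 37 °C, bacteria in TSB, LB Lennox or CY were grown in 384-well plates from a starting OD595 of 0.01. OD595 was measured every 30 min for 14 h, with the first reading used as background. Fitness is the optical density at the switch to stationary phase as a fraction of the robust mean of no-drug control wells, capped at 1.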

S. aureus Newman [2] = experiment: as above
In short: as §1

S. pneumoniae D39V [3] = experiment: as above
In short: as §1

B. subtilis 168 = experiment: Bliss interaction score (quartile over a dose matrix) (fitness difference); higher = more antagonism (negative = synergy)
In short: (§2)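 Growth was read as OD595 when cultures entered stationary phase, and each value was divided by the plate's robust no-drug mean and capped at 1. This normalised ratio is the fitness value, and fitness for each single drug came from the combination data. The Bliss score subtracts the expected fitness, taken as the product, from the observed fitness and is given as quartiles across technical, biological and donor/recipient replicates.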

S. aureus DSM 20231 [4] = experiment: as above
In short: as §2

S. aureus Newman [5] = experiment: as above
In short: as §2

S. pneumoniae D39V [6] = experiment: as above
In short: as §2
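Wherever Bliss interaction score (quartile over a dose matrix) is given: first quartile when negative (synergy) and third quartile when positive (antagonism).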
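Wherever fitness (endpoint OD595 vs no drug) is given: OD595 on entry to stationary phase over no-drug wells; at most 1.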

CO/N=C(\C(=O)N[C@@H]1C(=O)N2C(C(=O)[O-])=C(C[N+]3(C)CCCC3)CS[C@H]12)c1csc(N)n1 [Cefepime] + CC1=C\[C@@H](O)CC(=O)Cc2nc(co2)C(=O)N2CCC=C2C(=O)O[C@H](C(C)C)[C@H](C)/C=C/C(=O)NC\C=C\1 [Virginiamycin M1]
Conditions	fitness
S. aureus DSM 20231 [1], first compound 0.125 µg/mL, partner 0.0625 µg/mL	0.97
S. aureus DSM 20231 [1], first compound 0.125 µg/mL, partner 0.125 µg/mL	0.932
S. aureus DSM 20231 [1], first compound 0.125 µg/mL, partner 0.25 µg/mL	0.895
S. aureus DSM 20231 [1], first compound 0.25 µg/mL, partner 0.0625 µg/mL	0.78
S. aureus DSM 20231 [1], first compound 0.25 µg/mL, partner 0.125 µg/mL	0.902
S. aureus DSM 20231 [1], first compound 0.25 µg/mL, partner 0.25 µg/mL	0.862
S. aureus DSM 20231 [1], first compound 0.5 µg/mL, partner 0.0625 µg/mL	0.832
S. aureus DSM 20231 [1], first compound 0.5 µg/mL, partner 0.125 µg/mL	0.969
S. aureus DSM 20231 [1], first compound 0.5 µg/mL, partner 0.25 µg/mL	0.904
S. aureus Newman [2], first compound 0.125 µg/mL, partner 0.0625 µg/mL	0.936
S. aureus Newman [2], first compound 0.125 µg/mL, partner 0.125 µg/mL	0.932
S. aureus Newman [2], first compound 0.125 µg/mL, partner 0.25 µg/mL	0.943
S. aureus Newman [2], first compound 0.25 µg/mL, partner 0.0625 µg/mL	0.869
S. aureus Newman [2], first compound 0.25 µg/mL, partner 0.125 µg/mL	0.848
S. aureus Newman [2], first compound 0.25 µg/mL, partner 0.25 µg/mL	0.863
S. aureus Newman [2], first compound 0.5 µg/mL, partner 0.0625 µg/mL	0.768
S. aureus Newman [2], first compound 0.5 µg/mL, partner 0.125 µg/mL	0.792
S. aureus Newman [2], first compound 0.5 µg/mL, partner 0.25 µg/mL	0.775
S. pneumoniae D39V [3], first compound 0.007 µg/mL, partner 0.5 µg/mL	≥ 1
S. pneumoniae D39V [3], first compound 0.007 µg/mL, partner 1 µg/mL	≥ 1
S. pneumoniae D39V [3], first compound 0.007 µg/mL, partner 2 µg/mL	0.992
S. pneumoniae D39V [3], first compound 0.0078 µg/mL, partner 2 µg/mL	0.958
S. pneumoniae D39V [3], first compound 0.014 µg/mL, partner 0.5 µg/mL	≥ 1
S. pneumoniae D39V [3], first compound 0.014 µg/mL, partner 1 µg/mL	≥ 1
S. pneumoniae D39V [3], first compound 0.014 µg/mL, partner 2 µg/mL	≥ 1
S. pneumoniae D39V [3], first compound 0.0155 µg/mL, partner 2 µg/mL	0.946
S. pneumoniae D39V [3], first compound 0.028 µg/mL, partner 0.5 µg/mL	0.979
S. pneumoniae D39V [3], first compound 0.028 µg/mL, partner 1 µg/mL	0.956
S. pneumoniae D39V [3], first compound 0.028 µg/mL, partner 2 µg/mL	0.969
S. pneumoniae D39V [3], first compound 0.031 µg/mL, partner 2 µg/mL	0.851

fitness, one replicate
Conditions	first compound 0.0078 µg/mL	first compound 0.0155 µg/mL	first compound 0.031 µg/mL	first compound 0.125 µg/mL	first compound 0.25 µg/mL	first compound 0.5 µg/mL
S. aureus DSM 20231 [1], partner 0.5 µg/mL	–	–	–	0.887	0.892	0.866
S. aureus DSM 20231 [1], partner 1 µg/mL	–	–	–	0.86	0.878	0.948
S. aureus Newman [2], partner 0.5 µg/mL	–	–	–	0.865	0.819	0.732
S. aureus Newman [2], partner 1 µg/mL	–	–	–	0.873	0.916	0.768
S. aureus Newman [2], partner 2 µg/mL	–	–	–	0.888	0.798	0.706
S. pneumoniae D39V [3], partner 0.15 µg/mL	≥ 1	≥ 1	≥ 1	–	–	–
S. pneumoniae D39V [3], partner 0.3 µg/mL	≥ 1	≥ 1	0.963	–	–	–
S. pneumoniae D39V [3], partner 0.5 µg/mL	≥ 1	0.948	0.782	–	–	–
S. pneumoniae D39V [3], partner 1 µg/mL	0.958	0.962	0.686	–	–	–

Conditions	Bliss interaction score
B. subtilis 168	0.062
S. aureus DSM 20231 [4]	0.0738
S. aureus Newman [5]	-0.0566
S. pneumoniae D39V [6]	0.0257
